{"source": "patent US20150105252A1", "about": "“SUBSTITUTED PYRAZOLES AS HERBICIDES” (E I DU PONT DE NEMOURS AND COMPANY, priority 2013, published 2015)", "key": {"[1]": {"tested_on": "corn", "test": "Test A postemergence", "format": "in vivo, Zea mays", "summary_of_the_method": "(§1)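 Injury readout: eye-scored versus untreated controls, 0 to 100. Exposure period: ~10 days, greenhouse. Application: soil-directed spray over sown seed (pre) or spray on seedlings 2–10 cm tall with one or two leaves (post), compound carried in non-phytotoxic solvent including surfactant.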"}, "[2]": {"tested_on": "velvetleaf", "test": "Test A postemergence", "format": "in vivo, Abutilon theophrasti", "summary_of_the_method": "as §1"}, "[3]": {"tested_on": "galium", "test": "Test C postemergence", "format": "in vivo, Galium aparine", "summary_of_the_method": "(§2)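 Scores of 0 (no effect) to 100 (complete control) were assigned by eye after 13–15 days, comparing treated pots with controls. Soil-applied (preemergence) treatments went onto seeds in loam and sand; foliar (postemergence) treatments onto 1- to 4-leaf plants in peat medium.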"}, "[4]": {"tested_on": "foxtail, giant", "test": "Test A postemergence", "format": "in vivo, Setaria faberii", "summary_of_the_method": "as §1"}, "[5]": {"tested_on": "foxtail, giant", "test": "Test C preemergence", "format": "in vivo, Setaria faberii", "settings": "preemergence", "summary_of_the_method": "as §2"}, "[6]": {"tested_on": "morningglory", "test": "Test C postemergence", "format": "in vivo, Ipomoea coccinea", "summary_of_the_method": "as §2"}, "[7]": {"tested_on": "galium", "test": "Test C preemergence", "format": "in vivo, Galium aparine", "settings": "preemergence", "summary_of_the_method": "as §2"}, "[8]": {"tested_on": "corn", "test": "Test C preemergence", "format": "in vivo, Zea mays", "settings": "preemergence", "summary_of_the_method": "as §2"}, "[9]": {"tested_on": "velvetleaf", "test": "Test C postemergence", "format": "in vivo, Abutilon theophrasti", "settings": "postemergence", "summary_of_the_method": "as §2"}, "[10]": {"tested_on": "wheat", "test": "Test A postemergence", "format": "in vivo, Triticum aestivum", "summary_of_the_method": "as §1"}, "[11]": {"tested_on": "wheat", "test": "Test C postemergence", "format": "in vivo, Triticum aestivum", "settings": "postemergence", "summary_of_the_method": "as §2"}, "[12]": {"tested_on": "soybean", "test": "Test C preemergence", "format": "in vivo, Glycine max", "settings": "preemergence", "summary_of_the_method": "as §2"}, "[13]": {"tested_on": "barnyardgrass", "test": "Test C postemergence", "format": "in vivo, Echinochloa crus-galli", "summary_of_the_method": "as §2"}, "[14]": {"tested_on": "foxtail, giant", "test": "Test C postemergence", "format": "in vivo, Setaria faberii", "summary_of_the_method": "as §2"}, "[15]": {"tested_on": "kochia", "test": "Test C postemergence", "format": "in vivo, Kochia scoparia", "summary_of_the_method": "as §2"}, "[16]": {"tested_on": "waterhemp", "test": "Test C preemergence", "format": "in vivo, Amaranthus rudis", "settings": "preemergence", "summary_of_the_method": "as §2"}, "[17]": {"settings": "Postemergence, 500 g ai/ha, 0 to 100 scale (0 no effect, 100 complete control)"}, "[18]": {"settings": "postemergence, 125 g ai/ha, about 10 days, visual rating on 0 to 100 scale (0 no effect, 100 complete control)"}, "[19]": {"settings": "Postemergence, 31 g ai/ha, visually evaluated after 13 to 15 days"}, "[20]": {"settings": "postemergence, 62 g ai/ha, scale 0 to 100"}, "[21]": {"settings": "postemergence, 250 g ai/ha, scale 0 to 100 (0 no effect, 100 complete control)"}, "[22]": {"settings": "postemergence, 125 g ai/ha, scale 0 to 100, 0 no effect, 100 complete control"}, "[23]": {"settings": "31 g ai/ha, visual rating, scale 0 to 100 (0 no effect, 100 complete control), 13 to 15 days"}, "[24]": {"settings": "62 g ai/ha, scale 0 to 100 (0 no effect, 100 complete control), 13 to 15 days"}, "[25]": {"settings": "125 g ai/ha, 13 to 15 days, scale 0 to 100, 0 = no effect, 100 = complete control"}, "[26]": {"settings": "250 g ai/ha, scale 0 to 100, 0 is no effect, 100 is complete control"}, "[27]": {"settings": "250 g ai/ha, scale 0 to 100 (0 no effect, 100 complete control)"}}, "data": [{"smiles": "CCNC(=O)c1cc(CC)n(Cc2cc(C(F)(F)F)nn2C)n1", "note": "[Compound 154]", "values": [{"measurement": "Corn plant response rating", "setting": "[1]; [17]", "result": 100}, {"measurement": "Corn plant response rating", "setting": "[1]; [18]", "result": 40}, {"measurement": "Velvetleaf plant response rating", "setting": "[2]; [17]", "result": 100}, {"measurement": "Velvetleaf plant response rating", "setting": "[2]; [18]", "result": 80}, {"measurement": "Plant response rating (scale of 0 to 100 where 0 is no effect and 100 is complete control), Galium", "setting": "[3]; [19]", "result": 50}, {"measurement": "Galium plant response rating", "setting": "[3]; [20]", "result": 50}, {"measurement": "Plant response rating, Galium", "setting": "[3]; [21]", "result": 85}, {"measurement": "Plant response rating, Galium", "setting": "[3]; [22]", "result": 65}, {"measurement": "Foxtail, Giant plant response rating", "setting": "[4]; [17]", "result": 100}, {"measurement": "Foxtail, Giant plant response rating", "setting": "[4]; [18]", "result": 100}, {"measurement": "Foxtail, Giant plant response rating", "setting": "[5]; [23]", "result": 30}, {"measurement": "Foxtail, Giant plant response rating", "setting": "[5]; [24]", "result": 90}, {"measurement": "Plant response rating, Foxtail, Giant", "setting": "[5]; [25]", "result": 100}, {"measurement": "Foxtail, Giant plant response rating", "setting": "[5]; [26]", "result": 100}, {"measurement": "Plant response rating (scale of 0 to 100 where 0 is no effect and 100 is complete control), Morningglory", "setting": "[6]; [19]", "result": 15}, {"measurement": "Morningglory plant response rating", "setting": "[6]; [20]", "result": 60}, {"measurement": "Plant response rating, Morningglory", "setting": "[6]; [21]", "result": 95}, {"measurement": "Plant response rating, Morningglory", "setting": "[6]; [22]", "result": 85}, {"measurement": "Galium plant response rating", "setting": "[7]; [23]", "result": 90}, {"measurement": "Galium plant response rating", "setting": "[7]; [24]", "result": 100}, {"measurement": "Plant response rating, Galium", "setting": "[7]; [25]", "result": 100}, {"measurement": "Galium plant response rating", "setting": "[7]; [26]", "result": 100}, {"measurement": "Corn plant response rating", "setting": "[8]; [23]", "result": 0}, {"measurement": "Corn plant response rating", "setting": "[8]; [24]", "result": 5}, {"measurement": "Plant response rating, Corn", "setting": "[8]; [25]", "result": 40}, {"measurement": "Corn plant response rating", "setting": "[8]; [26]", "result": 95}, {"measurement": "Plant response rating, Velvetleaf", "setting": "[9]; [27]", "result": 55}, {"measurement": "Velvetleaf plant response rating", "setting": "[9]; scale 0 to 100", "result": 25}, {"measurement": "Wheat plant response rating", "setting": "[10]; [17]", "result": 100}, {"measurement": "Wheat plant response rating", "setting": "[10]; [18]", "result": 20}, {"measurement": "Plant response rating, Wheat", "setting": "[11]; [27]", "result": 10}, {"measurement": "Wheat plant response rating", "setting": "[11]; scale 0 to 100", "result": 5}, {"measurement": "Soybean plant response rating", "setting": "[12]; [23]", "result": 35}, {"measurement": "Soybean plant response rating", "setting": "[12]; [24]", "result": 80}, {"measurement": "Plant response rating, Soybean", "setting": "[12]; [25]", "result": 95}, {"measurement": "Soybean plant response rating", "setting": "[12]; [26]", "result": 98}, {"measurement": "Plant response rating (scale of 0 to 100 where 0 is no effect and 100 is complete control), Barnyardgrass", "setting": "[13]; [19]", "result": 5}, {"measurement": "Barnyardgrass plant response rating", "setting": "[13]; [20]", "result": 5}, {"measurement": "Plant response rating, Barnyardgrass", "setting": "[13]; [21]", "result": 10}, {"measurement": "Plant response rating, Barnyardgrass", "setting": "[13]; [22]", "result": 5}, {"measurement": "Plant response rating (scale of 0 to 100 where 0 is no effect and 100 is complete control), Foxtail, Giant", "setting": "[14]; [19]", "result": 5}, {"measurement": "Foxtail, Giant plant response rating", "setting": "[14]; [20]", "result": 5}, {"measurement": "Plant response rating, Foxtail, Giant", "setting": "[14]; [21]", "result": 10}, {"measurement": "Plant response rating, Foxtail, Giant", "setting": "[14]; [22]", "result": 5}, {"measurement": "Plant response rating (scale of 0 to 100 where 0 is no effect and 100 is complete control), Kochia", "setting": "[15]; [19]", "result": 80}, {"measurement": "Kochia plant response rating", "setting": "[15]; [20]", "result": 85}, {"measurement": "Plant response rating, Kochia", "setting": "[15]; [21]", "result": 95}, {"measurement": "Plant response rating, Kochia", "setting": "[15]; [22]", "result": 85}, {"measurement": "Waterhemp plant response rating", "setting": "[16]; [23]", "result": 85}, {"measurement": "Waterhemp plant response rating", "setting": "[16]; [24]", "result": 100}, {"measurement": "Plant response rating, Waterhemp", "setting": "[16]; [25]", "result": 100}, {"measurement": "Waterhemp plant response rating", "setting": "[16]; [26]", "result": 100}]}]}
